Test results: ChEMBL document CHEMBL1143500, “Novel heterocyclic thyromimetics” (Bioorg Med Chem Lett, 2005)

Each compound was assayed against T1, Thyroid hormone receptor (Homo sapiens) (UniProt P10827+P10828) (assay: Selectivity for THRalpha and THRbeta, ratio of EC50).
Format: protein-complex assay

Selectivity | SMILES
10 | CCOC(=O)CC(=O)Nc1cc(C)c(Oc2ccc3[nH]cc(C(C)C)c3c2)c(Cl)c1
10 | CCOC(=O)C(=O)Nc1cc(C)c(Oc2ccc3[nH]cc(C(C)C)c3c2)c(C)c1
10 | CCOC(=O)C(=O)Nc1cc(C(F)(F)F)c(Oc2ccc3[nH]cc(C(C)C)c3c2)c(C(F)(F)F)c1

The compounds below were run against T1, Thyroid hormone receptor (Homo sapiens) (assay: (§1) Agonist activity towards thyroid hormone receptor expressed in human HepG2 cells).
Format: functional, cell-based

Concentration | SMILES
24 nM | Cc1cc(OCC(=O)O)cc(C)c1Oc1ccc2[nH]cc(C(C)C)c2c1

The compounds below were run against T2, Thyroid hormone receptor (Homo sapiens, UniProt P10827+P10828) (assay: as §1).
T2 sequence (P10827 whole entry): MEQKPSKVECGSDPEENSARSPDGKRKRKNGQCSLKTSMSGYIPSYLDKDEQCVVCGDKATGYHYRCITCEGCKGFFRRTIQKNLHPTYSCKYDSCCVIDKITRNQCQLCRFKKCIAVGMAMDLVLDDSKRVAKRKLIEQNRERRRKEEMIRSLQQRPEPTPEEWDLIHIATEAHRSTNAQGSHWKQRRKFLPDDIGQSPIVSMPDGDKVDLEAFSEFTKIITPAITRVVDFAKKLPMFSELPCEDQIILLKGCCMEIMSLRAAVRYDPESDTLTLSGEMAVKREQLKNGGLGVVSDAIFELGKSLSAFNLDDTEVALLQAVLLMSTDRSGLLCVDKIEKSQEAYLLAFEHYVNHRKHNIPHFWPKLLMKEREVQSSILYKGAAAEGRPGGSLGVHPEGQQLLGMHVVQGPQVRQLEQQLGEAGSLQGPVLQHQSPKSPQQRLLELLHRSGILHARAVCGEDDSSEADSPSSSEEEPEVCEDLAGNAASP
T2 sequence (P10828 whole entry): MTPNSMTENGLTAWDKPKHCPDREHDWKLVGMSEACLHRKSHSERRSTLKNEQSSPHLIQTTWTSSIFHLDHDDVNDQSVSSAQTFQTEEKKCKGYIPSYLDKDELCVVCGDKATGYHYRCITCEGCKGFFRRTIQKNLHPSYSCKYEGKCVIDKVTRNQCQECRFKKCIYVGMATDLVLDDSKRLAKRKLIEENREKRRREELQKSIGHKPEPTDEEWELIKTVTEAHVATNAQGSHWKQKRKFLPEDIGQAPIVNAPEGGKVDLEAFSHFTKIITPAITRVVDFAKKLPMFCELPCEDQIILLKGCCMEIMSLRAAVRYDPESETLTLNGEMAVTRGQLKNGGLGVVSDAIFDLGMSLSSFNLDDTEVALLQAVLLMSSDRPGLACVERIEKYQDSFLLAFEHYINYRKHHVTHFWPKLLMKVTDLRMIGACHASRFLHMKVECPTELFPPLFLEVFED
Format: functional, cell-based

EC50 | SMILES
3.2 nM | CC(C)c1c[nH]c2ccc(Oc3c(C(F)(F)F)cc(/C=C/C(=O)O)cc3C(F)(F)F)cc12
7.8 nM | C=Cc1cc(NC(=O)C(=O)OCC)cc(C=C)c1Oc1ccc2[nH]cc(C(C)C)c2c1
8 nM | CCOC(=O)CC(=O)Nc1cc(C)c(Oc2ccc3[nH]cc(C(C)C)c3c2)c(Cl)c1
23 nM | CCOC(=O)C(=O)Nc1cc(C(F)(F)F)c(Oc2ccc3[nH]ccc3c2)c(C(F)(F)F)c1
4 nM | CCOC(=O)C(=O)Nc1cc(C)c(Oc2ccc3[nH]cc(C(C)C)c3c2)c(Cl)c1
4 nM | CCOC(=O)C(=O)Nc1cc(C)c(Oc2ccc3[nH]cc(C(C)C)c3c2)c(C)c1
15 nM | CCOC(=O)C(=O)Nc1cc(C)c(Oc2ccc3[nH]cc(C)c3c2)c(C)c1
72 nM | CCOC(=O)C(=O)Nc1cc(C)c(Oc2ccc3[nH]ccc3c2)c(C)c1
1.2 nM | CCOC(=O)C(=O)Nc1cc(Br)c(Oc2ccc3[nH]cc(C(C)C)c3c2)c(Br)c1
15 nM | CCOC(=O)C(=O)Nc1cc(Cl)c(Oc2ccc3[nH]ccc3c2)c(Cl)c1
2.6 nM | CC(C)c1c[nH]c2ccc(Oc3c(C(F)(F)F)cc(CCC(=O)O)cc3C(F)(F)F)cc12
3 nM | CCOC(=O)C(=O)Nc1cc(C(F)(F)F)c(Oc2ccc3[nH]cc(C(C)C)c3c2)c(C(F)(F)F)c1
4 nM | COC(=O)C(=O)Nc1cc(Cl)c(Oc2ccc3[nH]cc(C(C)C)c3c2)c(Cl)c1

SMILES | EC50
CCOC(=O)C(=O)Nc1cc(C)c(Cc2ccc3[nH]cc(C(C)C)c3c2)c(C)c1 | 18 nM
CCOC(=O)C(=O)Nc1cc(C(F)(F)F)c(Oc2ccc3[nH]cc(-c4ccc(F)cc4)c3c2)c(C(F)(F)F)c1 | 115 nM
CCCCCc1n[nH]c2ccc(Oc3c(C)cc(NC(=O)C(=O)OCC)cc3C)cc12 | 8 nM
CC(C)c1c[nH]c2ccc(Oc3c(C(F)(F)F)cc(CC(=O)O)cc3C(F)(F)F)cc12 | 0.5 nM
CCOC(=O)C(=O)Nc1cc(C(F)(F)F)c(Oc2ccc3[nH]cc(Oc4ccc(F)cc4)c3c2)c(C(F)(F)F)c1 | 495 nM
CCOC(=O)C(=O)Nc1cc(C(F)(F)F)c(Oc2ccc3[nH]cc(Cc4ccc(F)cc4)c3c2)c(C(F)(F)F)c1 | 11 nM
